Measurements taken from patent US12290535B2, “Langerin+ cell targeting” (Max-Planck-Gesellschaft zur Förderung der Wissenschaften …, priority 2018, dated 2025).

Target: T1, Langerin CRD (Homo sapiens, UniProt Q9UJ71, V278A)
T1 construct: residues 193 to 328; made in house; host or cells: E. coli BL21* (DE3)
Test: 15N HSQC NMR titration (KD determination)
Type: binding
Procedure: Langerin and DC-SIGN carbohydrate recognition domain. Expression and purification were conducted as previously published. Briefly, the monomeric ^15N-labeled Langerin and DC-SIGN carbohydrate recognition domains (CRDs) were expressed insolubly in E. coli BL21* (DE3) (Invitrogen). Following enzymatic cell lysis, inclusion bodies were harvested and subsequently solubilized. The sample was centrifuged and the Langerin and DC-SIGN CRDs were refolded overnight via rapid dilution. Next, the sample was dialyzed overnight, centrifuged and purified via StrepTactin affinity chromatography (Iba). […] The concentration of Langerin and DC-SIGN CRDs was determined via UV spectroscopy (A280, 0.1%=3.19 and A280, 0.1%=2.98). Purity and monodispersity of Langerin and DC-SIGN CRD samples were analyzed via SDS PAGE and DLS. […]
KD determination. KD values were determined in titration experiments at six ligand concentrations [L]T. Samples were prepared via serial dilution. Chemical shift perturbations CSPs for Langerin CRD resonances in the fast or fast-to-intermediate exchange regime observed upon titration with ligand were calculated via Equation 1 (Williamson, M. P. Using Chemical Shift Perturbation to Characterise Ligand Binding. Prog Nucl Magn Reson Spectrosc 73, 1-16 (2013)). […]

T1 sequence (Q9UJ71 193-328 V278A): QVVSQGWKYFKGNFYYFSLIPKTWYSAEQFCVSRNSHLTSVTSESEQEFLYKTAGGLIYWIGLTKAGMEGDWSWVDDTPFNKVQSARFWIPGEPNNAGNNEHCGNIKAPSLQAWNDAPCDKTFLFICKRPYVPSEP

Structure (SMILES): CC(=O)NCCO[C@H]1O[C@H](CO)[C@@H](O)[C@H](O)[C@@H]1O [Man analog 21]
- Kd: 12 ± 1 mM
